Measured values as given in patent US11634389B2 (priority 2018, dated 2023).

Tested on: Monilinia fructicola isolate
Assay: Radial mycelial growth on SDHI-amended PDA, Monilinia fructicola isolate (FIG. 4)
Type: cell-based
Settings: versus positive control fluxapyroxad
Experimental: FIG. 4 depicts the fungicidal performance of a compound according to the disclosure (“1831”) against Monilinia fructicola isolate against a blank control, as compared to fluxapyroxad, a commercially available fungicide (“fluxa”).
The inhibitory effects of these SDHI compounds were evaluated against the various pathogenic isolates grown on half-strength potato dextrose agar (PDA) amended with a given SDHI. SDHIs were formulated as 10,000 ppm stocks in DMSO. Inoculated media were prepared using a ratio of 12 g potato dextrose broth powder to 15 g agar to 1 L of deionized water. Upon autoclaving and cooling to 55° C., the media were inoculated with the SDHI compound of interest (1 mL of 10,000 ppm stock in 1 L media) then poured into plates. This method represented a 10 ppm trial for the SDHI compound. Mycelial plugs were cut from the leading growth of active fungal colonies (supported on full PDA media) and placed mycelia-down in the center of a plate. After an appropriate number of days (3-14 days, depending on pathogen), the radial growth was measured (average of three plates), and reported as the radial mycelial growth or as radial mycelial growth relative to a control. An analogous procedure was employed to determine the EC50 value by varying the concentration of the initial SDHI compound DMSO stock. […]

In the case of Cn1ncc(C(=O)NC23CCC(c4ccccc42)C3(C)C)c1Cl (stereo not shown) [compound 1831], the “radial growth relative to that seen with fluxapyroxad” value was “about half”.
